Test results taken from PubChem BioAssay (NCI).
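Grown in 96-well plates, cells were treated for 48 hours with each compound at five concentrations. Insufficient inhibition: endpoint recorded as highest concentration tested. Abbreviation: GI50, concentration required for 50% inhibition of growth. The concentration for full growth arrest is given as TGI.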

What was measured:
Assay in all cases: growth of human tumour cells (NCI), 48 h
[1] = test system: PC-3 prostate
[2] = test system: UACC-62 melanoma
[3] = test system: SF-539 CNS
[4] = test system: OVCAR-8 ovarian
[5] = test system: UACC-257 melanoma
[6] = test system: CAKI-1 renal
[7] = test system: NCI-H226 lung
[8] = test system: HCC-2998 colon
[9] = test system: SK-MEL-2 melanoma
[10] = test system: HOP-92 NSCLC
[11] = test system: SK-MEL-28 melanoma
[12] = test system: EKVX NSCLC
[13] = test system: RXF 393 renal
[14] = test system: SR leukemia
[15] = test system: HCT-116 colon
[16] = test system: HOP-62 NSCLC
[17] = test system: MOLT-4 leukemia
[18] = test system: HCT-15 colon
[19] = test system: NCI-H460 lung
[20] = test system: MDA-MB-231 breast
[21] = test system: M14 melanoma
[22] = test system: 786-0 renal
[23] = test system: A498 renal
[24] = test system: CCRF-CEM leukemia
[25] = test system: T-47D breast
[26] = test system: UO-31 renal
[27] = test system: LOX IMVI melanoma
[28] = test system: NCI/ADR-RES ovarian
[29] = test system: SK-MEL-5 melanoma
[30] = test system: U251 CNS
[31] = test system: SNB-19 CNS
[32] = test system: MALME-3M melanoma
[33] = test system: SW-620 colon
[34] = test system: NCI-H522 lung
[35] = test system: KM12 colon
[36] = test system: MCF7 breast
[37] = test system: COLO 205 colon
[38] = test system: BT-549 breast
[39] = test system: OVCAR-3 ovarian
[40] = test system: MDA-MB-435
[41] = test system: SF-268 CNS
[42] = test system: HL-60(TB) leukemia
[43] = test system: HT29 colon
[44] = test system: ACHN renal
[45] = test system: DU-145 prostate
[46] = test system: OVCAR-5 ovarian
[47] = test system: SN12C renal
[48] = test system: K-562 leukemia
[49] = test system: IGROV1 ovarian
[50] = test system: RPMI-8226 leukemia
[51] = test system: OVCAR-4 ovarian
[52] = test system: SNB-75 CNS
[53] = test system: A549 NSCLC
[54] = test system: SF-295 CNS

COc1cc(-c2ccc3ncnc(NCc4ccccc4)c3c2)cnc1OC
GI50 [1]: 2.79 µM | TGI [1]: > 100 µM | GI50 [2]: 2.97 µM | TGI [2]: > 100 µM | GI50 [3]: 4.8 µM | TGI [3]: > 100 µM | GI50 [4]: 9.42 µM | TGI [4]: > 100 µM | GI50 [5]: 69.8 µM | TGI [5]: > 100 µM | GI50 [6]: 2.02 µM | TGI [6]: > 100 µM | GI50 [7]: 4.68 µM | TGI [7]: > 100 µM | GI50 [8]: 14.4 µM | TGI [8]: > 100 µM | GI50 [9]: 19.5 µM | TGI [9]: > 100 µM | GI50 [10]: 0.544 µM | TGI [10]: 4.82 µM | GI50 [11]: 9.68 µM | TGI [11]: > 100 µM | GI50 [12]: 1.89 µM | TGI [12]: > 100 µM | GI50 [13]: 1.33 µM | TGI [13]: 6.1 µM | GI50 [14]: 7.24 µM | TGI [14]: > 100 µM | GI50 [15]: 13.1 µM | TGI [15]: > 100 µM | GI50 [16]: 6.88 µM | TGI [16]: > 100 µM | GI50 [17]: 3.8 µM | TGI [17]: > 100 µM | GI50 [18]: 5.68 µM | TGI [18]: > 100 µM | GI50 [19]: 5.83 µM | TGI [19]: > 100 µM | GI50 [20]: 4.72 µM | TGI [20]: > 100 µM | GI50 [21]: 16.4 µM | TGI [21]: > 100 µM | GI50 [22]: 2.99 µM | TGI [22]: > 100 µM | GI50 [23]: 1.78 µM | TGI [23]: 6.64 µM | GI50 [24]: 4 µM | TGI [24]: > 100 µM | GI50 [25]: 0.192 µM | TGI [25]: 2.82 µM | GI50 [26]: 1.45 µM | TGI [26]: > 100 µM | GI50 [27]: 4.19 µM | TGI [27]: 27.4 µM | GI50 [28]: 7.97 µM | TGI [28]: > 100 µM | GI50 [29]: 10.7 µM | TGI [29]: > 100 µM | GI50 [30]: 77.3 µM | TGI [30]: > 100 µM | GI50 [31]: 9.33 µM | TGI [31]: > 100 µM | GI50 [32]: 9.59 µM | TGI [32]: > 100 µM | GI50 [33]: 34.2 µM | TGI [33]: > 100 µM | GI50 [34]: 4.65 µM | TGI [34]: > 100 µM | GI50 [35]: 50.7 µM | TGI [35]: > 100 µM | GI50 [36]: 0.658 µM | TGI [36]: 19 µM | GI50 [37]: 7.48 µM | TGI [37]: > 100 µM | GI50 [38]: 3.25 µM | TGI [38]: > 100 µM | GI50 [39]: 3.94 µM | TGI [39]: > 100 µM | GI50 [40]: 56 µM | TGI [40]: > 100 µM | GI50 [41]: 6.43 µM | TGI [41]: > 100 µM | GI50 [42]: 6.42 µM | TGI [42]: > 100 µM | GI50 [43]: 5.02 µM | TGI [43]: > 100 µM | GI50 [44]: 2.92 µM | TGI [44]: > 100 µM | GI50 [45]: 3.43 µM | TGI [45]: > 100 µM | GI50 [46]: 2.97 µM | TGI [46]: > 100 µM | GI50 [47]: 3.74 µM | TGI [47]: > 100 µM | GI50 [48]: 51 µM | TGI [48]: > 100 µM | GI50 [49]: 1.03 µM | TGI [49]: 3.52 µM | GI50 [50]: 4.38 µM | TGI [50]: > 100 µM | GI50 [51]: 62.7 µM | TGI [51]: > 100 µM | GI50 [52]: 0.655 µM | TGI [52]: 6.87 µM | GI50 [53]: 3.59 µM | TGI [53]: > 100 µM | GI50 [54]: 3.83 µM | TGI [54]: > 100 µM
